Laboratory results as given in patent US20110160311A1, “Sweetness Enhancers, Compositions Thereof, and Methods for Use” (The Coca-Cola Company, priority 2009, published 2011).

Key:
[1] = Sweetness enhancement of glucose, fructose or sucrose at 6% SE in water by additive at its threshold level; format: in vivo, human; set-up: key: T: Slight thicker-like sweetness (not intensity factor).; No difference; N(S+): No difference but slightly more sweet (0.5-0.75%); +S: More sweetness intensity (~1.0% SE); ++S: Much more sweetness intensity (~2.0% SE); conditions: room temperature, additive at its Table 1 threshold level; for Sensory result versus FRU 55,000 ppm: fructose at 6% SE in water; for Sensory result versus GLU 99,000 ppm: glucose at 6% SE in water; for Sensory result versus SUC 60,000 ppm: sucrose at 6% SE in water
Experimental: (§1) A first sip (approximately 2.2 mL) of a ca. 20 mL control composition was taken and swallowed. After waiting for a time ranging from 15 to 25 seconds, a second sip of control composition was taken and swallowed, and the sweetness and/or taste of the control composition was noted. After waiting for a time ranging from 15 to 25 seconds, these steps were repeated with a comparative composition. The sweetness and taste differences between the control and the comparative composition were noted. For each tested composition, this cycle was repeated once to confirm the initial findings. All samples were measured at average 23.0° C.±1° C. between samples for consistent comparison and to minimize any effects of temperature on the perceived taste or sweetness of the composition.
(§2) To perform the taste test, three sweetener samples were paired with one additive and taste tested as described above. A three minute break was taken before tasting another three sweetener samples paired with a different additive. Up to 10 additives per day were used to minimize a fatigue factor. Before tasting, at least 1.5 hours elapsed after ingestion of any food, drink or nicotine. The tests were repeated on a different date to validate the initial findings.
The twenty-one entities above were combined in a concentration at the sweetness detection threshold level listed in Table 1, with one of Glucose (GLU), Fructose (FRU), and Sucrose (SUG), each at a fixed SE (Sucrose Equivalents) level of 6%. The sweetness of the compositions was measured as described above at room temperature.

[2] = as above; format: in vivo, human; conditions: for Sweetness of the composition after enhancement: from about 6% SE (sucrose control), REB C at 100 ppm, the other compound at 25 ppm
[3] = Sweetness detection threshold level in water, multi-sip and swallow taste method; format: in vivo, human; conditions: for Sweetness Detection Threshold Level: in water at room temperature
Excerpt: As used herein, the terms “sweetness threshold,” “sweetness recognition threshold,” and “sweetness detection threshold” are understood to mean the level at which the lowest known concentration of a certain sweet compound that is perceivable by the human sense of taste and it can vary from person to person. For example, a typical sweetness threshold level for sucrose in water can be 0.5%.
Further for example, the at least one sweetness enhancer to be used can be assayed in water at least 25% lower and at least 25% higher than the sucrose detection level of 0.5% in water to determine the sweetness threshold level.
as §1, §2
The sweetness detection threshold levels for 21 entities were measured by a single assessor in water at room temperature according to the multi-sip and swallow taste method described herein.

[4] = By-products of 500 ppm REB A after two months of storage in phosphoric acid at RT; format: physicochemical; conditions: approximated concentration of by-product of 500 ppm REB A
[5] = Rubusoside sweetness detection threshold estimation in water, sip-and-spit, 5 subjects; format: in vivo, human; conditions: 50 ppm solution in purified water, all 5 subjects
Experimental: Preliminarily, a 1,000 ppm steviol glycoside solution was prepared by dissolution of 20 mg steviol glycoside in 20 mL purified water. An aliquot (10 mL) of this solution was diluted to 20 mL with water to obtain a 500 ppm solution. Additional 1:1 serial dilutions were used to obtain 250, 125, 62.5, 31.2 and 15.6 ppm solutions. Those solutions were then tasted in ascending order of concentration by one experienced subject by using the sip-and-spit protocol disclosed herein. The subject's estimated sweetness detection threshold was determined to be at the lowest concentration at which sweetness was definitely observed.
Thereafter, a 200 ppm solution of rubusoside was prepared by dissolution of 20 mg rubusoside in 200 mL purified water. An aliquot (50 mL) of this solution then was diluted to 100 mL with water to obtain a 100 ppm solution. Additional 1:1 serial dilution steps were used to prepare 50 and 25 ppm solutions. These solutions then were tasted in ascending order of concentration by 5 experienced subjects by the sip-and-spit protocol.

[6] = Sweetness recognition threshold in lemon-lime carbonated beverage at 4° C.; format: in vivo, human; conditions: lemon-lime carbonated beverage (citric buffer) at 4° C., average of six subjects
Experimental: Preliminarily, multi-levels of steviol glycoside solution in lemon-lime beverage at 4° C. were prepared by mixing the calculated formulations to obtain 450, 350, 250 and 150 ppm of steviol glycoside solutions. Those solutions were then tasted by six experienced subjects by using the sip-and-spit protocol disclosed herein. The sweetness recognition threshold for rubusoside was determined to be averaged 150 ppm. For sweetness enhancement test of rubusoside in lemon-lime beverage, it was decided to use a 10 percent less of sweetness recognition threshold or 135 ppm (150−10%=135).

[7] = Descriptive sensory analysis of lemon-lime carbonated beverages at 4° C.; format: in vivo, human; conditions: 135 ppm rubusoside added to 8% HFSS lemon-lime beverage
Experimental: Three test products were prepare: a control beverage comprising 10.52% High Fructose Starch Syrup (HFSS), a lemon-lime prototype comprising 8% HFSS and 135 ppm rubusoside, and a standard lemon-lime beverage comprising 8% HFSS.
As part of study design, a full sensorial profile was determined using a Complete Block Design (CBD). All products were randomized and balanced. Each assessor evaluated all products sequentially. Each product was evaluated three times by each assessor. Eight minute time breaks between tasting samples. Unsalted cracker, 0.75% saline solution and mineral grade water was used as a mouth rinse and refresher before each sample. Each assessor was served 75 ml of chilled beverage (4° C.+/−1° C.). Table 5 provides the categories and the descriptions of the various attributes identified in Table 4.

[8] = Rubusoside and 6% sucrose sweetness enhancement test; format: in vivo, human; conditions: 50 mg rubusoside in 1 L of 6% sucrose; scale of 6-10 relative to 6-10% sucrose references; 6% sucrose reference rated 6.1
Experimental: Reference samples were prepared at 6, 7, 8, 9 and 10% sucrose (w/v). The test sample was prepared by addition of 50 mg of rubusoside to 1 L of 6% sucrose. The test sample was mixed with five sucrose control samples of various concentrations in the 6-10% sucrose range. Each of the six samples was then individually rated for sweetness intensity on a scale of 6-10 relative to the 6-10% sucrose references.
The Sweetness Intensity Rating ranged from 6 to 10, for each subject.

[9] = in water; cited from earlier work
[10] = estimation sweetness/off-taste threshold in water at room temperature (RT)

Row | Molecule | Levels After 2 Month of Storage [4] | Sensory result versus FRU 55,000 ppm [1] | Sensory result versus GLU 99,000 ppm [1] | Sensory result versus SUC 60,000 ppm [1] | Sweetness of the composition after enhancement [2] | Sweetness Detection Threshold Level ([3]; single assessor) | Sweetness Threshold Level [3, 10] | Sweetness Threshold Level ([3]; in water at RT, value is max. level for solubility) | Sweetness Detection Threshold Level ([3]; value is max. level for solubility) | Taste of the solution [5] | Enhancement of the 6% sucrose ([2]; rubusoside at 50 ppm, 6% sucrose in water) | Sweetness recognition threshold [6] | Times as sweet as the prototype without rubusoside [7] | Sweetness equivalence ([7]; interpolation of the data) | Average sweetness intensity rating [8] | Typical sweetness threshold level [9]
1 | C=C1CC23CCC4C(C)(C(=O)OC5OC(CO)C(O)C(O)C5O)CCCC4(C)C2CCC1(OC1OC(CO)C(O)C(OC2OC(CO)C(O)C(O)C2O)C1OC1OC(CO)C(O)C(OC2OC(CO)C(O)C(O)C2O)C1O)C3 [13-[(2-O-(3-O-α-D-glucopyranosyl)-β-D-glucopyranosyl-3-O-β-D-glucopyranosyl-β-D-glucopyranosyl)oxy] kaur-16-en-18-oic acid β-D-glucopyranosyl ester] | – | N(S+) (No difference but slightly more sweet (0.5-0.75%)) | N(S+) (No difference but slightly more sweet (0.5-0.75%)) | +S (More sweetness intensity (~1.0% SE)) | about 7 % SE | 25 ppm | – | – | – | – | – | – | – | – | – | –
2 | C=C1C[C@@]23CC[C@H]4[C@@](C)(CCC[C@@]4(C)C(=O)O[C@@H]4O[C@H](CO)[C@@H](O)[C@H](O)[C@H]4O)[C@@H]2CC[C@]1(O[C@@H]1O[C@H](CO)[C@@H](O)[C@H](O)[C@H]1O)C3 [Rubusoside] | – | N(S+) (No difference but slightly more sweet (0.5-0.75%)) | N(S+) (No difference but slightly more sweet (0.5-0.75%)) | ++S (Much more sweetness intensity (~2.0% SE)) | – | 50 ppm | – | – | – | absence of taste | about 2 % SE | 150 ppm | 1.15 times | 9.2 % HFSS | 7.9 | –
3 | OC[C@H]1O[C@@](CO)(O[C@H]2O[C@H](CO)[C@@H](O)[C@H](O)[C@H]2O)[C@@H](O)[C@@H]1O [sucrose] | – | – | – | – | – | – | – | – | – | – | – | – | – | – | – | 0.5%
4 | Rebaudioside C | – | N(S+) (No difference but slightly more sweet (0.5-0.75%)) | N(S+) (No difference but slightly more sweet (0.5-0.75%)) | +S (More sweetness intensity (~1.0% SE)) | about 7 % SE | 100 ppm | – | – | – | – | – | – | – | – | – | –

Second part, led by results:

Row | Levels After 2 Month of Storage [4] | Molecule | Sensory result versus FRU 55,000 ppm [1] | Sensory result versus GLU 99,000 ppm [1] | Sensory result versus SUC 60,000 ppm [1] | Sweetness of the composition after enhancement [2] | Sweetness Detection Threshold Level ([3]; single assessor) | Sweetness Threshold Level [3, 10] | Sweetness Threshold Level ([3]; in water at RT, value is max. level for solubility) | Sweetness Detection Threshold Level ([3]; value is max. level for solubility) | Taste of the solution [5] | Enhancement of the 6% sucrose ([2]; rubusoside at 50 ppm, 6% sucrose in water) | Sweetness recognition threshold [6] | Times as sweet as the prototype without rubusoside [7] | Sweetness equivalence ([7]; interpolation of the data) | Average sweetness intensity rating [8] | Typical sweetness threshold level [9]
5 | 10 ppm | CC1(C(=O)OC2OC(CO)C(O)C(O)C2O)CCCC2(C)C3CCC4(OC5OC(CO)C(O)C(OC6OC(CO)C(O)C(O)C6O)C5OC5OC(CO)C(O)C(O)C5O)CC3(CCC12)CC4(C)O [13-[(2-O-β-D-glucopyranosyl-3-O-β-D-glucopyranosyl-β-D-glucopyranosyl)oxy]-16-hydroxy kauran-18-oic acid β-D-glucopyranosyl ester] | N | N | N | – | 700 ppm | 700 ppm | – | – | – | – | – | – | – | – | –
6 | 33 ppm | CC1(C(=O)O)CCCC2(C)C3CCC4(OC5OC(CO)C(O)C(OC6OC(CO)C(O)C(O)C6O)C5OC5OC(CO)C(O)C(O)C5O)CC3(CCC12)CC4(C)O [13-[(2-O-β-D-glucopyranosyl-3-O-β-D-glucopyranosyl-β-D-glucopyranosyl)oxy]-16-hydroxy kauran-18-oic acid] | N | N | N | – | – | – | 500 ppm | 500 ppm | – | – | – | – | – | – | –
7 | 1 ppm | C[C@@]12CCC[C@@](C)(C(=O)O[C@@H]3O[C@H](CO)[C@@H](O)[C@H](O)[C@H]3O)[C@H]1CC[C@]13C=C(CO)[C@](O[C@@H]4O[C@H](CO)[C@@H](O)[C@H](O[C@@H]5O[C@H](CO)[C@@H](O)[C@H](O)[C@H]5O)[C@H]4O[C@@H]4O[C@H](CO)[C@@H](O)[C@H](O)[C@H]4O)(CC[C@H]12)C3 [13-[(2-O-β-D-glucopyranosyl-3-O-β-D-glucopyranosyl]-β-D-glucopyranosyl)oxy]-17-hydroxy-kaur-15-en-18-oic acid β-D-glucopyranosyl ester] | N | N | N(S+) (No difference but slightly more sweet (0.5-0.75%)) | – | 250 ppm | 250 ppm | – | – | – | – | – | – | – | – | –
8 | 17 ppm | Rebaudioside B | N | N | N | – | 25 ppm | 25 ppm | – | – | – | – | – | – | – | – | –
